ChEMBL document CHEMBL1155160, “Novel complex class 1 integron bearing an ISCR1 element in an Escherichia coli isolate carrying the blaCTX-M-14 gene” (2007)
In brackets after ≈: the same amount, converted by molar mass.

Tested on: Escherichia coli
Assay: Antimicrobial activity against Escherichia coli AJE0508 isolate carrying ISCR1 element related blaCTX-M-14 gene by agar dilution method
Format: functional

First: CC1(C)S[C@@H]2[C@H](NC(=O)[C@H](N)c3ccccc3)C(=O)N2[C@H]1C(=O)O [AMPICILLIN]
Second: CC(C)(O/N=C(\C(=O)N[C@@H]1C(=O)N2C(C(=O)[O-])=C(C[n+]3ccccc3)CS[C@H]12)c1csc(N)n1)C(=O)O [CEFTAZIDIME]
The MIC of the first is higher: greater than 256 µg/mL for the first, 32 µg/mL (≈ 58.5 µM) for the second.

`C[C@H]1[C@H](NC(=O)/C(=N\OC(C)(C)C(=O)O)c2csc(N)n2)C(=O)N1S(=O)(=O)O` [AZTREONAM] and `CO/N=C(\C(=O)N[C@@H]1C(=O)N2C(C(=O)O)=C(COC(C)=O)CS[C@H]12)c1csc(N)n1` [CEFOTAXIME] are the same in MIC: 64 µg/mL (≈ 147 µM) for the first, 64 µg/mL (≈ 141 µM) for the second.

First: CO[C@@]1(NC(=O)Cc2cccs2)C(=O)N2C(C(=O)O)=C(COC(N)=O)CS[C@@H]21 [CEFOXITIN]
Second: C[C@@H](O)[C@H]1C(=O)N2C(C(=O)O)=C(SCCNC=N)C[C@H]12 [IMIPENEM ANHYDROUS]
The MIC of the first is 80-fold higher: 8 µg/mL (≈ 18.7 µM) for the first, 0.1 µg/mL (≈ 0.334 µM) for the second.
